How the values were obtained:
BRD4-BD2 = BRD4-BD2 (Homo sapiens (Human), UniProt O60885); assay: BRD4 AlphaScreen assay (BRD4-BD2); type: binding; conditions: biotin-labeled tetra-acetylated histone H4 peptide
Procedure: (§1) BRD4-BD1 and BRD4-BD2 assays were conducted in white 384-well polystyrene plate in a final volume of 40 μL for BD1 and 60 μL for BD2. Inhibitors were first serially diluted in DMSO and added to the plate wells before the addition of other reaction components. The final concentration of DMSO in the assay was 1.25% (BD1) and 0.83% (BD2). The assays were carried out at room temperature in the assay buffer (50 mM Tris-HCl, pH 7.5, 0.01% Tween-20, 0.01% BSA, 5 mM DTT), containing 50 nM Biotin-labeled tetra-acetylated histone H4 peptide (H4Ac4) and BRD4-BD1 or BRD4-BD2 protein at concentration less than 1 nM. The incubation for 75 min. was followed by the addition of 20 μL of assay buffer supplemented with Streptavidin donor beads (PerkinElmer 6760002) and GSH Acceptor beads (PerkinElmer-AL109C) at final concentration 2-4 μg/mL under reduced light. After plate sealing, the plate was incubated in the dark at room temperature for 75 min. before reading on a PHERAstar FS plate reader (BMG Labtech). IC50 determination was performed by fitting the curve of percent control activity versus the log of the inhibitor concentration using the GraphPad Prism 5.0 software.

BRD4-BD1 = BRD4-BD1 (Homo sapiens (Human), UniProt O60885); assay: BRD4 AlphaScreen assay (BRD4-BD1); type: binding; conditions: biotin-labeled tetra-acetylated histone H4 peptide
Procedure: as §1

Row | Structure (SMILES) | IC50 (BRD4-BD2) | IC50 (BRD4-BD1)
1 | COc1cc2c(c(-c3cn(C)c(=O)c4[nH]ccc34)c1)OC(C(C)C)C(=O)N2 (single isomer, unassigned) [Example 9A, 2-isopropyl-6-methoxy-8-(6-methyl-7-oxo-6,7-dihydro-1H-pyrrolo[2,3-c]pyridin-4-yl)-2H-1,4-benzoxazin-3(4H)-one] | ≤ 100 nM | ≤ 100 nM
2 | COc1cc2c(c(-c3cn(C)c(=O)c4[nH]ccc34)c1)OC(C(C)C)C(=O)N2 (single isomer, unassigned) [Example 9B, 2-isopropyl-6-methoxy-8-(6-methyl-7-oxo-6,7-dihydro-1H-pyrrolo[2,3-c]pyridin-4-yl)-2H-1,4-benzoxazin-3(4H)-one] | ≤ 100 nM | ≤ 100 nM
3 | COc1cc2c(c(-c3cn(C)c(=O)c4[nH]ccc34)c1)OC(c1ccccc1)C(=O)N2 (single isomer, unassigned) [Example 24A, 6-methoxy-8-(6-methyl-7-oxo-6,7-dihydro-1H-pyrrolo[2,3-c]pyridin-4-yl)-2-phenyl-2H-1,4-benzoxazin-3(4H)-one] | ≤ 100 nM | ≤ 100 nM
4 | COc1cc2c(c(-c3cn(C)c(=O)c4[nH]ccc34)c1)OC(c1ccccc1)C(=O)N2 (single isomer, unassigned) [Example 24B, 6-methoxy-8-(6-methyl-7-oxo-6,7-dihydro-1H-pyrrolo[2,3-c]pyridin-4-yl)-2-phenyl-2H-1,4-benzoxazin-3(4H)-one] | ≤ 100 nM | ≤ 100 nM
5 | COc1cc2c(c(-c3cn(C)c(=O)c4[nH]ccc34)c1)OC(C1CCCC1)C(=O)N2 (single isomer, unassigned) [Example 35A, 2-Cyclopentyl-6-methoxy-8-(6-methyl-7-oxo-6,7-dihydro-1H-pyrrolo[2,3-c]pyridin-4-yl)-2H-1,4-benzoxazin-3(4H)-one] | ≤ 100 nM | ≤ 100 nM
6 | COc1cc2c(c(-c3cn(C)c(=O)c4[nH]ccc34)c1)OC(C1CCCC1)C(=O)N2 (single isomer, unassigned) [Example 35B, 2-Cyclopentyl-6-methoxy-8-(6-methyl-7-oxo-6,7-dihydro-1H-pyrrolo[2,3-c]pyridin-4-yl)-2H-1,4-benzoxazin-3(4H)-one] | ≤ 100 nM | ≤ 100 nM
7 | COc1cc2c(c(-c3cn(C)c(=O)c4[nH]ncc34)c1)OC(C1CCCC1)C(=O)N2 (single isomer, unassigned) [Example 42A, 2-cyclopentyl-6-methoxy-8-(6-methyl-7-oxo-6,7-dihydro-1H-pyrazolo[3,4-c]pyridin-4-yl)-2H-1,4-benzoxazin-3(4H)-one] | ≤ 100 nM | ≤ 100 nM
8 | COc1cc2c(c(-c3cn(C)c(=O)c4[nH]ncc34)c1)OC(C1CCCC1)C(=O)N2 (single isomer, unassigned) [Example 42B, 2-cyclopentyl-6-methoxy-8-(6-methyl-7-oxo-6,7-dihydro-1H-pyrazolo[3,4-c]pyridin-4-yl)-2H-1,4-benzoxazin-3(4H)-one] | ≤ 100 nM | 
9 | CC(C)C1Oc2c(cc(S(C)(=O)=O)cc2-c2cn(C)c(=O)c3[nH]ccc23)NC1=O (single isomer, unassigned) [Example 44A, 2-isopropyl-8-(6-methyl-7-oxo-6,7-dihydro-1H-pyrrolo[2,3-c]pyridin-4-yl)-6-(methylsulfonyl)-2H-1,4-benzoxazin-3(4H)-one] | ≤ 100 nM | ≤ 100 nM
10 | CC(C)C1Oc2c(cc(S(C)(=O)=O)cc2-c2cn(C)c(=O)c3[nH]ccc23)NC1=O (single isomer, unassigned) [Example 44B, 2-isopropyl-8-(6-methyl-7-oxo-6,7-dihydro-1H-pyrrolo[2,3-c]pyridin-4-yl)-6-(methylsulfonyl)-2H-1,4-benzoxazin-3(4H)-one] | ≤ 100 nM | ≤ 100 nM
11 | CC(C)C1Oc2c(-c3cn(C)c(=O)c4[nH]ccc34)cc(S(C)(=O)=O)cc2N(C)C1=O (single isomer, unassigned) [Example 47A, 2-isopropyl-4-methyl-8-(6-methyl-7-oxo-6,7-dihydro-1H-pyrrolo[2,3-c]pyridin-4-yl)-6-(methylsulfonyl)-2H-1,4-benzoxazin-3(4H)-one] | ≤ 100 nM | ≤ 100 nM
12 | CC(C)C1Oc2c(-c3cn(C)c(=O)c4[nH]ccc34)cc(S(C)(=O)=O)cc2N(C)C1=O (single isomer, unassigned) [Example 47B, 2-isopropyl-4-methyl-8-(6-methyl-7-oxo-6,7-dihydro-1H-pyrrolo[2,3-c]pyridin-4-yl)-6-(methylsulfonyl)-2H-1,4-benzoxazin-3(4H)-one] | ≤ 100 nM | ≤ 100 nM
13 | CC(O)c1cc(-c2cn(C)c(=O)c3[nH]ccc23)c2c(c1)N(C)C(=O)C(C)(C)O2 (single isomer, unassigned) [Example 83A, 6-(1-hydroxyethyl)-2,2,4-trimethyl-8-(6-methyl-7-oxo-6,7-dihydro-1H-pyrrolo[2,3-c]pyridin-4-yl)-2H-1,4-benzoxazin-3(4H)-one] | ≤ 100 nM | ≤ 100 nM
14 | CC(O)c1cc(-c2cn(C)c(=O)c3[nH]ccc23)c2c(c1)N(C)C(=O)C(C)(C)O2 (single isomer, unassigned) [Example 83B, 6-(1-hydroxyethyl)-2,2,4-trimethyl-8-(6-methyl-7-oxo-6,7-dihydro-1H-pyrrolo[2,3-c]pyridin-4-yl)-2H-1,4-benzoxazin-3(4H)-one] | ≤ 100 nM | ≤ 100 nM
15 | Cn1cc(-c2cccc3c2OC(c2ccccc2)C(=O)N3)c2cc[nH]c2c1=O (stereo not drawn) [Example 1, 8-(6-methyl-7-oxo-6,7-dihydro-1H-pyrrolo[2,3-c]pyridin-4-yl)-2-phenyl-2H-1,4-benzoxazin-3(4H)-one] | ≤ 100 nM | ≤ 100 nM
16 | CC(C)C1Oc2c(cccc2-c2cn(C)c(=O)c3[nH]ccc23)NC1=O (stereo not drawn) [Example 2, 2-isopropyl-8-(6-methyl-7-oxo-6,7-dihydro-1H-pyrrolo[2,3-c]pyridin-4-yl)-2H-1,4-benzoxazin-3(4H)-one] | ≤ 100 nM | ≤ 100 nM
17 | CC1Oc2c(cccc2-c2cn(C)c(=O)c3[nH]ccc23)NC1=O (stereo not drawn) [Example 3, 2-methyl-8-(6-methyl-7-oxo-6,7-dihydro-1H-pyrrolo[2,3-c]pyridin-4-yl)-2H-1,4-benzoxazin-3(4H)-one] | ≤ 100 nM | 100 to 1000 nM
18 | CCC1Oc2c(cccc2-c2cn(C)c(=O)c3[nH]ccc23)NC1=O (stereo not drawn) [Example 4, 2-ethyl-8-(6-methyl-7-oxo-6,7-dihydro-1H-pyrrolo[2,3-c]pyridin-4-yl)-2H-1,4-benzoxazin-3(4H)-one] | ≤ 100 nM | 100 to 1000 nM
19 | Cn1cc(-c2cccc3c2OC(c2ccccn2)C(=O)N3)c2cc[nH]c2c1=O (stereo not drawn) [Example 5, 8-(6-methyl-7-oxo-6,7-dihydro-1H-pyrrolo[2,3-c]pyridin-4-yl)-2-pyridin-2-yl-2H-1,4-benzoxazin-3(4H)-one 2,2,2-trifluoroacetate] | ≤ 100 nM | 100 to 1000 nM
20 | Cn1cc(-c2cccc3c2OC(C2CC2)C(=O)N3)c2cc[nH]c2c1=O (stereo not drawn) [Example 6, 2-cyclopropyl-8-(6-methyl-7-oxo-6,7-dihydro-1H-pyrrolo[2,3-c]pyridin-4-yl)-2H-1,4-benzoxazin-3(4H)-one] | ≤ 100 nM | ≤ 100 nM
21 | Cn1cc(-c2cccc3c2OC(C2CCOCC2)C(=O)N3)c2cc[nH]c2c1=O (stereo not drawn) [Example 7, 8-(6-methyl-7-oxo-6,7-dihydro-1H-pyrrolo[2,3-c]pyridin-4-yl)-2-(tetrahydro-2H-pyran-4-yl)-2H-1,4-benzoxazin-3(4H)-one] | ≤ 100 nM | ≤ 100 nM
22 | CCC1Oc2c(-c3cn(C)c(=O)c4[nH]ccc34)cccc2N(C)C1=O (stereo not drawn) [Example 8, 2-ethyl-4-methyl-8-(6-methyl-7-oxo-6,7-dihydro-1H-pyrrolo[2,3-c]pyridin-4-yl)-2H-1,4-benzoxazin-3(4H)-one] | ≤ 100 nM | 100 to 1000 nM
23 | COc1cc2c(c(-c3cn(C)c(=O)c4[nH]ccc34)c1)OC(C(C)C)C(=O)N2 (stereo not drawn) [Example 9, 2-isopropyl-6-methoxy-8-(6-methyl-7-oxo-6,7-dihydro-1H-pyrrolo[2,3-c]pyridin-4-yl)-2H-1,4-benzoxazin-3(4H)-one] |  | ≤ 100 nM
24 | COc1cc(-c2cn(C)c(=O)c3[nH]ccc23)c2c(c1)N(C)C(=O)C(C(C)C)O2 (stereo not drawn) [Example 10, 2-isopropyl-6-methoxy-4-methyl-8-(6-methyl-7-oxo-6,7-dihydro-1H-pyrrolo[2,3-c]pyridin-4-yl)-2H-1,4-benzoxazin-3(4H)-one] | ≤ 100 nM | ≤ 100 nM
25 | COc1cc(-c2cn(C)c(=O)c3[nH]ccc23)c2c(c1)N(CC(=O)O)C(=O)C(C(C)C)O2 (stereo not drawn) [Example 11, [2-isopropyl-6-methoxy-8-(6-methyl-7-oxo-6,7-dihydro-1H-pyrrolo[2,3-c]pyridin-4-yl)-3-oxo-2,3-dihydro-4H-1,4-benzoxazin-4-yl]acetic acid] | 100 to 1000 nM | 100 to 1000 nM
26 | CNC(=O)CN1C(=O)C(C(C)C)Oc2c(-c3cn(C)c(=O)c4[nH]ccc34)cc(OC)cc21 (stereo not drawn) [Example 12, 2-[2-isopropyl-6-methoxy-8-(6-methyl-7-oxo-6,7-dihydro-1H-pyrrolo[2,3-c]pyridin-4-yl)-3-oxo-2,3-dihydro-4H-1,4-benzoxazin-4-yl]-N-methylacetamide] | ≤ 100 nM | 100 to 1000 nM
27 | COc1cc2c(c(-c3cn(C)c(=O)c4[nH]ccc34)c1)OC(C1CCCC1)C(=O)N2 (stereo not drawn) [Example 35, 2-cyclopentyl-6-methoxy-8-(6-methyl-7-oxo-6,7-dihydro-1H-pyrrolo[2,3-c]pyridin-4-yl)-2H-1,4-benzoxazin-3(4H)-one] |  | ≤ 100 nM

— US9957268B2, “1H-pyrrolo[2,3,c]pyridin-7(6H)-ones and pyrazolo[3,4-c]pyridin-7(6H)-ones as inhibitors of BET proteins” (Incyte Corporation, priority 2014, dated 2018)
